From US7998985B2, “1,5-diphenyl-3-pyridinylamino-1,5-dihydropyrrolidin-2-one as CB1 receptor modulator” (Eli Lilly and Company, priority 2006, dated 2011) come the findings set out here.

For data set [1], the system named is alcohol-preferring (P) rats. Kind of data set: 12-hour ethanol consumption in alcohol-preferring rats (P rats). It counts as in vivo, rat. The settings on record: female P rats, 15% (v/v) ethanol, continuous free access; Example 2 given p.o. From the text:
Evaluate Example 2 for its ability to reduce consumption of ethanol in rats selectively bred for high oral ethanol intake (P rats). In addition, study the effects of Example 2 under conditions in which effects of the compound on motivation or the control of behavior by ethanol could be assessed.
Methods: Study the effects of Example 2 on female, alcohol-preferring (P) rats on alcohol consumption under a continuous free access paradigm. For comparative purposes test the standard opioid antagonist naltrexone. Monitor voluntary consumption of 15% (v/v) ethanol. Suspend Example 2 in vehicle (1% CMC, 0.5% SLS, 0.08% povidone, 0.05% Dow Corning antifoam 1510 US) and give p.o. 3 hours prior to the onset of the dark cycle. In addition, measure locomotor activity via infrared sensor.

The next data set deals with NIH male Swiss mice. As to the kind of experiment: Forced Swim Test (FST). It counts as in vivo, mouse. As to conditions: 90 minute pre-treatment, lowest dose with significant decrease in immobility time. As to the method:
Receive NIH male Swiss mice (Harlan Sprague-Dawley, weight 20-25 g) 7 to 10 days prior to testing. House 12 mice per cage. Test only animals that weigh 25-30 g. On the day of testing, bring animals to the testing room at least 1 hour prior to dosing. When dosing starts, dose at 6-8 minute intervals between each dose with each mouse receiving either Administer vehicle (1% CMC, 0.5% SLS, 0.08% povidone, 0.05% antifoam) or Example 2, p.o. Next, place mice in a clean cage (4 mice per cage). After 90 minutes, start the test following a 90 minute pre-treatment with Example 2 or vehicle.
Mice FST: Place NIH-Swiss mice in clear plastic cylinders (diameter: 10 cm; height: 25 cm) filled to 6 cm with 22-25° C. water for six minutes. Record the duration of immobility during the last 4 minutes of the six-minute trial. A mouse is regarded as immobile when floating motionless or making only those movements necessary to keep its head above the water. Analyze data by ANOVA with a post-hoc Dunnett's test (alpha=0.05; JMP). Record the minimum effective dose (MED) as the lowest dose of compound at which statistically significant decrease in immobility time is observed versus a vehicle control.

A short description of another data set: Bioavailability, dog. As to conditions: in vivo. From the text: (§1) Methods for accessing bioavailability are well appreciated in the art. One such reference is Medicinal Research Reviews Vol. 21 No. 5 382-396 (2001).
The next data set is described as follows: Bioavailability, rat. As to conditions: in vivo.
Source text: as §1

In another data set the target is T1, human CB2 receptor (Homo sapiens, UniProt P34972).
T1 construct: purchased Applied Cell Sciences, Gaithersburg, Md; PerkinElmer Life Sciences, Boston, Mass; host or cells: Sf9 insect cells (recombinant expression), membranes
As to the kind of experiment: Antibody-capture SPA GTP-γ-35S binding, antagonist/inverse agonist mode, human CB2 (Sf9 membranes). It counts as biochemical. The settings on record: Table 3.

The next data set deals with hCB1 (Homo sapiens, UniProt P21554). Kind of data set: hCB1 SPA GTPγ35S Sf9 membranes, antagonist mode (Table 3). The class given is biochemical. More on the design: purchased Applied Cell Sciences, Gaithersburg, Md; PerkinElmer Life Sciences, Boston, Mass; host or cells: Sf9 insect cells (recombinant expression), membranes. As to conditions: hCB1 SPA GTPγ35S Sf9 Mem 22.7 ug protein/well Antagonist; read-out: Inverse Agonist Potency CB1 (Kb).
Sequence of hCB1 (P21554 whole entry): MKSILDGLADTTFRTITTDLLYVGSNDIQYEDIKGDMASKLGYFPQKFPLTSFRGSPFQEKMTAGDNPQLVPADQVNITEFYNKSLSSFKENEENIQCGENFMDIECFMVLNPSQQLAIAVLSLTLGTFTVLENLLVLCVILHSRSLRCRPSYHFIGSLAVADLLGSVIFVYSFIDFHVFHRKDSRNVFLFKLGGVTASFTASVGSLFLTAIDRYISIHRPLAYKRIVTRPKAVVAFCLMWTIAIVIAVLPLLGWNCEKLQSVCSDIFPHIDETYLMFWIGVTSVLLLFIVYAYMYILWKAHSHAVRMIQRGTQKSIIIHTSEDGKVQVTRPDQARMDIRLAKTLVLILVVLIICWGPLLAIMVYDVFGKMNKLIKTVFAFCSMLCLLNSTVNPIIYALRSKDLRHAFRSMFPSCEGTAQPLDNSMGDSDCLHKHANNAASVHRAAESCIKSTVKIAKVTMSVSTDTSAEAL

T1 sequence (P34972 whole entry): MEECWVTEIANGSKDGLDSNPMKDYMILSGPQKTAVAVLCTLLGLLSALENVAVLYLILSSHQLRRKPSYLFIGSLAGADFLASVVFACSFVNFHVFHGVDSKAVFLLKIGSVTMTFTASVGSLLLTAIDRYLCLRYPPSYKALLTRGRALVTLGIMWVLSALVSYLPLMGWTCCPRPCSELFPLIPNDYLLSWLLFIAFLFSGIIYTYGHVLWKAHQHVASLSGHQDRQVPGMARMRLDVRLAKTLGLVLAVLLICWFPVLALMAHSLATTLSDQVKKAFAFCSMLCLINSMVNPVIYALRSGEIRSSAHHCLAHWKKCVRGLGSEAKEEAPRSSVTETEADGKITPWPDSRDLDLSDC

As to `O=C1CC[C@@]2(O)[C@H]3Cc4ccc(O)c5c4[C@@]2(CCN3CC2CC2)[C@H]1O5` [Naltrexone, naltrexone, reference compound], the consumption of ethanol entry in data set [1] is listed as “at higher doses, was also able to reduce ethanol intake”.

Consider `CC(C)(N[C@@H]1C[C@H](c2cccc(OC(F)(F)F)c2)N(c2ccc(C(F)(F)F)cc2)C1=O)c1ccc(C(F)(F)F)nc1.Cc1ccc(S(=O)(=O)O)cc1` [drawing 21], for which, in the data set with NIH male Swiss mice, the “FST (MED mg/kg p.o.)” value was 1 mg/kg. In addition, the bioavailability in the data set “Bioavailability, dog” is 60%; in “Bioavailability, rat” it was 65%. Besides, the “Inverse Agonist Potency CB2 (Kb, nM)” value at human CB2 receptor is “No measurable activity”.

Regarding `CC(C)(N[C@@H]1C[C@H](c2cccc(OC(F)(F)F)c2)N(c2ccc(C(F)(F)F)cc2)C1=O)c1ccc(C(F)(F)F)nc1.Cl` [drawing 22], the “Inverse Agonist Potency CB2 (Kb, nM)” value on human CB2 receptor is listed as “No measurable activity”.

As to `CC(C)(N[C@H]1C[C@H](c2cccc(OC(F)(F)F)c2)N(c2ccc(C(F)(F)F)cc2)C1=O)c1ccc(C(F)(F)F)nc1.Cc1ccc(S(=O)(=O)O)cc1` [drawing 23], the Kb at hCB1 stood at 3 nM. Moreover, the “Inverse Agonist Potency CB2 (Kb, nM)” value on human CB2 receptor is “No measurable activity”.

Turning to `CC(C)(N[C@H]1C[C@H](c2cccc(OC(F)(F)F)c2)N(c2ccc(C(F)(F)F)cc2)C1=O)c1ccc(C(F)(F)F)nc1.Cl` [drawing 24], the Kb at hCB1 is 8.8 nM. The “Inverse Agonist Potency CB2 (Kb, nM)” value on human CB2 receptor was “No measurable activity”.
